In publication PMC11211886 (Frontiers in Pharmacology, 2024):

How the values were obtained:
P-gp = P-gp (Homo sapiens, UniProt P08183); experiment: in vitro; conditions: human, Caco-2
Excerpt: (§1) The experimental conditions were similar to those of the permeability study.

BCRP = target: T1, BCRP (Homo sapiens, UniProt Q9UNQ0); experiment: in vitro; conditions: Caco-2
T1 sequence (Q9UNQ0 1-655): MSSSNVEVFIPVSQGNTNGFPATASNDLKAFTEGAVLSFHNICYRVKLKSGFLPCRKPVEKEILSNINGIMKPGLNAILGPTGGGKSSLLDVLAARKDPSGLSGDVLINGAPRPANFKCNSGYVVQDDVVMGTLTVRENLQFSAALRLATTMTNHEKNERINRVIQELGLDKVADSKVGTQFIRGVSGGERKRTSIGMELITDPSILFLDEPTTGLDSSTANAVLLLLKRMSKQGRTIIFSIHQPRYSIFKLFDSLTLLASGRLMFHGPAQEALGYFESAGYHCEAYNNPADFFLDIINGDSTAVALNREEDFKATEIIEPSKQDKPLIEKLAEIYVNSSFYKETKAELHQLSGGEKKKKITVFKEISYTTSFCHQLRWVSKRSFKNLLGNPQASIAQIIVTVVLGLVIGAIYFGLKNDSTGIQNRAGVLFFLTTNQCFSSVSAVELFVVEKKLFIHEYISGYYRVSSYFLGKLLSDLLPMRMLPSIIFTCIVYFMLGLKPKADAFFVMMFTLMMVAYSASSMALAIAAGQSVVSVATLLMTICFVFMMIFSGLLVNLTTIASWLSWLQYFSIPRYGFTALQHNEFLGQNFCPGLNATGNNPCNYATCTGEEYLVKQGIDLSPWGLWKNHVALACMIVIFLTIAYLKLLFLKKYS
Excerpt: as §1

CYP2C8 mRNA = experiment: in vitro; conditions: human; for fold induction at 48 h, 25 µM: Gene expression Fold Induction
Experimental: (§2) […] […] […] Enzyme activity for each CYP isoform was reported as a fold change over vehicle control and the percent of positive control (detailed calculation in Supplementary 1.1). Hepatocytes were harvested with a lysis buffer from RNeasy 96 Kit (Qiagen Inc., Germantown, MD, USA) to isolate RNA, which was analyzed by real-time quantitative polymerase chain reaction (RT-PCR). […] Emax (the maximal observed induction) and EC50 (the concentration that supports half-maximal induction) were estimated by non-linear regression of fold increase in CYP mRNA expression versus concentration plots.
(§3) % of positive control = [(fold change in treated sample)-1] / [(fold change in positive control)-1] × 100
(§4) Based on the gene expression, a minimum of 4-fold increase of positive control compared to vehicle control, a minimum of 2-fold increase of the test article compared vehicle control and increased in a concentration-dependent manner was considered as the cutoff for a positive signal in in vitro induction assay.

CYP2C19 = experiment: CYP induction in human hepatocytes, CYP2C19 enzyme activity; format: in vitro ADME; conditions: 25 µM
Experimental: as §2
(§5) The fold of vehicle control and the percent of positive control were calculated with the formulas below:
(§6) Fold of vehicle control = CYPs activity of test compound (or positive control) treated sample / CYPs activity of vehicle control treated sample
as §3
(§7) Based on the enzyme activity, a minimum of 2-fold increase compared to vehicle control for the positive control and ≥40% of the positive control for the test article was considered as the cutoff for a positive signal in in vitro induction assay.

CYP2C9 mRNA = experiment: CYP induction in human hepatocytes, CYP2C9 mRNA (RT-PCR); conditions: for Gene expression Percent of PC (%): 25 µM
Experimental: as §2, §3, §4

CYP2C8 = experiment: in vitro; conditions: human; for fold induction at 48 h, 25 µM: Enzyme activity Fold Induction
Experimental: as §2, §5, §6, §3, §7

CYP2C9 = experiment: in vitro; conditions: human; for fold induction at 48 h, 25 µM: Enzyme activity Fold Induction
Experimental: as §2, §5, §6, §3, §7

[1] = Caco-2 bidirectional transport permeability; format: in vitro ADME, human; conditions: human
Experimental: The passage number of cells used in this study was 39. Non-specific binding to the device surfaces and the aqueous solubility of test compounds were tested before the transport experiment. […] The integrity of the monolayer was estimated by measuring transepithelial electrical resistance (TEER). Only the monolayers with TEER over 150 Ω were used for the studies.

Sequence of P-gp (P08183 whole entry): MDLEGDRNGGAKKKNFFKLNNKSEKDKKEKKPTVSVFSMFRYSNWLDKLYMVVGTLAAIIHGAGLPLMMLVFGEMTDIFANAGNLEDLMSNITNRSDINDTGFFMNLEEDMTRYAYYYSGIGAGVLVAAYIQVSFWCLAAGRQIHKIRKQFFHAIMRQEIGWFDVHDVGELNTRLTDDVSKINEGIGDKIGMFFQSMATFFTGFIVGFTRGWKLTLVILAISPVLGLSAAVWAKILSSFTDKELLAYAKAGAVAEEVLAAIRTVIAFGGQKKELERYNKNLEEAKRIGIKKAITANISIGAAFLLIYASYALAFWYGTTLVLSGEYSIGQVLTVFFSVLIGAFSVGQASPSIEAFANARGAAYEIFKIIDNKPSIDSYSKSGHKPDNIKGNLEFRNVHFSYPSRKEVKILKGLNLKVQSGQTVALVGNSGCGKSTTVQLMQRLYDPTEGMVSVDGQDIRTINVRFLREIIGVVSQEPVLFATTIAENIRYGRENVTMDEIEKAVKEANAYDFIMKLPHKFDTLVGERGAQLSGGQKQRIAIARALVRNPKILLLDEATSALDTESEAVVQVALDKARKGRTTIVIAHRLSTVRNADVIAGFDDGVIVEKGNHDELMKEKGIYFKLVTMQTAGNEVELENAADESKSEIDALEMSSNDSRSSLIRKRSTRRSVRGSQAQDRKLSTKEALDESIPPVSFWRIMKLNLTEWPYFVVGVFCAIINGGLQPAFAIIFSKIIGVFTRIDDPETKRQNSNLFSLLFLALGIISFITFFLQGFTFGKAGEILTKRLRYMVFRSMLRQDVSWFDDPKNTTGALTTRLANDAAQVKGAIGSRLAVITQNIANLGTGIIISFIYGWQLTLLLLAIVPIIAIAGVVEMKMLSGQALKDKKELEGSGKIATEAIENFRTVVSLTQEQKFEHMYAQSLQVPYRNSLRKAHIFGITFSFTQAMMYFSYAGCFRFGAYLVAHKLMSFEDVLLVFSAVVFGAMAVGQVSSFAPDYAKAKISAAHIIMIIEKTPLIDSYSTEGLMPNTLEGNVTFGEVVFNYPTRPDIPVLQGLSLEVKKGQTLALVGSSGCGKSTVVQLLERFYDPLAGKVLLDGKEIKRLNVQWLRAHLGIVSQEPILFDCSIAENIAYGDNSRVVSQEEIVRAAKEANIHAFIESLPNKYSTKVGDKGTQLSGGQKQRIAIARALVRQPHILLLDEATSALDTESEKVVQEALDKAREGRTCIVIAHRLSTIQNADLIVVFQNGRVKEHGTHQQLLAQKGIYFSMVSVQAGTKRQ

SMILES: C[C@H]1O[C@@H](O[C@H]2[C@@H](O)C[C@H](O[C@H]3[C@@H](O)C[C@H](O[C@H]4CC[C@@]5(C)[C@H](CC[C@@H]6[C@@H]5C[C@@H](O)[C@]5(C)[C@@H](C7=CC(=O)OC7)CC[C@]65O)C4)O[C@@H]3C)O[C@@H]2C)C[C@H](O)[C@@H]1O [Digoxin, reference compound]
- Papp B→A at 60 min, 5 µM (P-gp): 25 ×10⁻⁶ cm/s

SMILES: C[C@]12CC[C@@H]3c4ccc(OS(=O)(=O)O)cc4CC[C@H]3[C@@H]1CCC2=O [E3S, Estrone-3-sulfate, reference compound]
- Papp A-B of E3S (BCRP): 2.79 ×10–^6 cm/s
- Papp B-A of E3S (BCRP): 77.8 ×10–^6 cm/s

SMILES: CCOC(=O)c1ncn2c1CN(C)C(=O)c1cc(F)ccc1-2 [Flumazenil]
- Gene expression Percent of PC (%) (CYP2C8 mRNA; female, 48 h, 25 µM): 15.4%
- fold induction at 48 h, 25 µM (CYP2C8 mRNA; female): 1.89
- Gene expression Fold Induction (CYP2C8 mRNA; male, 48 h, 25 µM): 0.92 fold
- fold induction at 48 h, 25 µM (CYP2C8 mRNA; male): 1.05
- Enzyme activity Percent of PC (%) (CYP2C19; CYP2C19, donor eight): -3.72%
- Enzyme activity Percent of PC (%) (CYP2C19; CYP2C19, donor four): -3.91%
- Enzyme activity Percent of PC (%) (CYP2C19; CYP2C19, donor one): 1.83%
- fold induction at 48 h, 25 µM (CYP2C19; human three, cryopreserved human hepatocytes, probe S-(+)-mephenytoin (80 µM), CYP2C19, donor eight): 0.87
- Gene expression Percent of PC (%) (CYP2C9 mRNA; CYP2C9, donor eight): 12.1%
- Gene expression Percent of PC (%) (CYP2C9 mRNA; CYP2C9, donor four): 19.7%
- Gene expression Percent of PC (%) (CYP2C9 mRNA; CYP2C9, donor one): 25.6%
- fold induction at 48 h, 25 µM (CYP2C9 mRNA; female, human): 1.83
- fold induction at 48 h, 25 µM (CYP2C9 mRNA; human three, cryopreserved human hepatocytes (donor four)): 1.52
- fold induction at 48 h, 25 µM (CYP2C9 mRNA; male, human, cryopreserved human hepatocytes): 1.53
- Enzyme activity Percent of PC (%) (CYP2C8; female, 48 h, 25 µM): 3.75%
- fold induction at 48 h, 25 µM (CYP2C8; female): 1.18
- Enzyme activity Fold Induction (CYP2C8; male, 48 h, 25 µM): 1.39 fold
- fold induction at 48 h, 25 µM (CYP2C8; male): 1.05
- Enzyme activity Percent of PC (%) (CYP2C9; female, 48 h, 25 µM): 6.88%
- fold induction at 48 h, 25 µM (CYP2C9; female): 1.11
- Enzyme activity Fold Induction (CYP2C9; male, 48 h, 25 µM): 1.14 fold
- fold induction at 48 h, 25 µM (CYP2C9; male): 1.05

SMILES: COCCc1ccc(OCC(O)CNC(C)C)cc1 (stereo not shown) [Metoprolol, reference compound]
- Papp A→B at 60 min, 10 µM [1]: 39.4 ×10⁻⁶ cm/s
- Papp B→A at 60 min, 10 µM [1]: 36.8 ×10⁻⁶ cm/s
- efflux ratio at 60 min, 10 µM [1]: 0.935
